Measured values as given in patent US5650428A, “Arylsulfonamide derivative and pharmaceutical compositions and use thereof” (NKK Corporation, priority 1993, dated 1997).
Structures can show the parent of a compound that is named as a salt.

Key:
[1] = biological target: T1, thromboxane A2 (TxA2) receptor (Cavia porcellus, UniProt A0A286Y4I8); test: TxA2 antagonist action by binding assay; settings: washed guinea pig platelets, 1 nM [3H]-SQ29,548, 45 minutes at 25° C.
T1 construct: to obtain washed platelets; from tissue; host or cells: washed platelets of male Hartley guinea pigs
T1 sequence (A0A286Y4I8 1-347): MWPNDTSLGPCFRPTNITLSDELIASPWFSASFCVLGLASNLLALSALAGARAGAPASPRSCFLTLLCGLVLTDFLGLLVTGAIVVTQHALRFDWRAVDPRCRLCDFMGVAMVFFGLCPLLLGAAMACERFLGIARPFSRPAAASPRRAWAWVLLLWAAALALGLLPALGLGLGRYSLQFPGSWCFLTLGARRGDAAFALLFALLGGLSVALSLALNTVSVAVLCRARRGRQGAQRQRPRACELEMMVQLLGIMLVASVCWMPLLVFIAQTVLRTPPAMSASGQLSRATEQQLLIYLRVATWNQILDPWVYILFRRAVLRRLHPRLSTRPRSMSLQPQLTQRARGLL
Procedure: (1) TxA2 antagonist action by binding assay Guinea pigs (Hartley; male; body weight=approximately 500 g) were anesthetized with ether, and the blood was collected into sodium citrate (final concentration=0.38%). The preparation of platelets was carried out at room temperature. The platelet rich plasma was obtained by centrifugation at 980 rpm for 10 minutes. One tenth (1/10) amount of 77 mM-EDTA-Na (pH 7.4) was added to the platelet rich plasma, and the mixture was centrifuged for 10 minutes at 3000 rpm. The suspension was again centrifuged at 3000 rpm for 10 minutes. The precipitate was further resuspended in a suspension buffer (2) shown in Table 2 to obtain washed platelets. The number of platelets was counted by an automatic blood cell counter (Sysmex Microcellcounter F-800) and the sample was diluted with the suspension buffer to 4×10^8 cells/ml. The platelets, sample solution and labeled compounds were placed into plastic tubes in amounts (volumes) shown in the following Table 3, incubated for 45 minutes at 25° C., and then the mixture was filtered using a cell harvester (Brandel cell harvester M-24R) by a glass fiber filter (Whatman GF/B). After the filter was sufficiently dried, the scintillation was counted by a scintillation counter (Beckman LS5000TD). IC50 was calculated from (binding)/(control binding) ratio in the presence of an antagonist. [table 3: the next 10 blocks are its lines as printed, fixed-width]

[2] = test system: rat platelet; test: Inhibitory activity of aggregation in rat platelet; format: cell-based; settings: rat platelet rich plasma, arachidonic acid (final concentration 0.5 mM) as inducer; read-out: C: Inhibitory activity of aggregation in rat platelet (IC50; μM)
Procedure: (3) Inhibitory Activity of Aggregation in Rat Platelet The abdomen of etherized rat was open, and blood was taken from the abdominal arteries, using a sodium citrate solution (final concentration was 0.38%). The blood was centrifuged at 1100 rpm for 10 minutes, and the supernatent was separated as the platelet rich plasma. The plasma was further centrifuged at 2000 rpm for 15 minutes to obtain the supernatent as a platelet poor plasma. The platelet rich plasma (280 μl) was placed in a measuring cuvette and preincubated for 1 minute at 37° C. Then, a sample solution (10 μl) was added. After 2 minutes, an arachidonic acid solution (final concentration=0.5 mM) (10 μl) was added as an inducer. The change in light transmission was recorded for 5 minutes.

| IC50 [1] [µM] | IC50 [2] [µM] | SMILES |
| --- | --- | --- |
| 0.037 | 1.7 | O=C(O)Cc1ccc(NC(=O)C(COc2ccc(Cl)cc2)NS(=O)(=O)c2ccc(Br)cc2)cc1 (racemic) [Example 143, (RS)-2-(4-bromobenzenesulfonylamino)-N-(4-(carboxymethyl)phenyl)-3-(4-chlorophenoxy) propanamide] |
| 22 | 17.1 | CSCC[C@@H](NS(=O)(=O)c1ccc(Cl)cc1)C(=O)Nc1ccc(CC(=O)O)cc1 [Example 235, (R)-N-(4-(carboxymethyl)phenyl)-2-(4-chlorobenzenesulfonylamino)-4-methylthiobutanamide] |
| 0.047 | 1.7 | O=C(O)Cc1ccc(NC(=O)C(COc2cccc(Cl)c2)NS(=O)(=O)c2ccc(Cl)cc2)cc1 (racemic) [Example 131, (RS)-N-(4-(carboxymethyl)phenyl)-2-(4-chlorobenzenesulfonylamino)-3-(3-chlorophenoxy)propanamide] |
| 0.86 | 1.7 | O=C(O)Cc1ccc(NC(=O)C(Cn2ccnc2)NS(=O)(=O)c2ccc(Cl)cc2)cc1 (racemic) [Example 94, (RS)-N-(4-(carboxymethyl)phenyl)-2-(4-chlorobenzenesulfonylamino)-3-(1H-imidazol-1-yl)propanamide hydrochloride] |
| 0.026 | 0.055 | CSCC[C@H](NS(=O)(=O)c1ccc(Br)cc1)C(=O)Nc1ccc(CC(=O)O)cc1 [Example 239, (S)-2-(4-bromobenzenesulfonylamino)-N-(4-(carboxymethyl)phenyl)-4-methylthiobutanamide] |
| 0.15 | 0.55 | O=C(O)Cc1ccc(NC(=O)C(COc2ccccc2)NS(=O)(=O)c2ccc(F)cc2)cc1 (racemic) [Example 136, (RS)-N-(4-(carboxymethyl)phenyl)-2-(4-fluorobenzenesulfonylamino)-3-phenoxypropanamide] |
| 0.18 | 1.7 | O=C(O)Cc1ccc(NC(=O)C(Cn2ccnc2)NS(=O)(=O)c2ccc(Br)cc2)cc1 (racemic) [Example 104, (RS)-2-(4-bromobenzenesulfonylamino)-N-(4-(carboxymethyl)phenyl)-3-(1H-imidazol-1-yl)propanamide] |
| 0.072 | 0.53 | CCCCC(NS(=O)(=O)c1ccc(Br)cc1)C(=O)Nc1ccc(CC(=O)O)cc1 (racemic) [Example 226, (RS)-2-(4-bromobenzenesulfonylamino)-N-(4-(carboxymethyl)phenyl)hexanamide] |
| 0.019 | 5.4 | O=C(O)Cc1ccc(NC(=O)C(COc2ccc(Cl)cc2)NS(=O)(=O)c2ccc(I)cc2)cc1 (racemic) [Example 150, (RS)-N-(4-(carboxymethyl)phenyl)-3-(4-chlorophenoxy)-2-(4-iodobenzenesulfonylamino)propanamide] |
| 0.099 | 0.17 | CSCC[C@H](NS(=O)(=O)c1ccc(Br)cc1)C(=O)Nc1ccc(CCC(=O)O)cc1 [Example 240, (S)-2-(4-bromobenzenesulfonylamino)-N-(4-(2-carboxyethyl)phenyl)-4-methylthiobutanamide] |
| 0.017 | 0.17 | O=C(O)Cc1ccc(NC(=O)C(COc2ccccc2)NS(=O)(=O)c2ccc(I)cc2)cc1 (racemic) [Example 149, (RS)-N-(4-(carboxymethyl)phenyl)-2-(4-iodobenzenesulfonylamino)-3-phenoxypropanamide] |
| 1.7 | 0.4 | O=C(O)CCCCCNC(=O)C(COC1CCCCO1)NS(=O)(=O)c1ccc(Cl)cc1 (racemic) [Example 49, (RS)-N-(5-carboxypentyl)-2-(4-chlorobenzenesulfonylamino)-3-(tetrahydropyran-2-yloxy)propanamide] |
| 0.17 | 0.17 | CSCCC(NS(=O)(=O)c1ccc(Cl)cc1)C(=O)Nc1ccc(CC(=O)O)cc1 (racemic) [Example 233, (RS)-N-(4-(carboxymethyl)phenyl)-2-(4-chlorobenzenesulfonylamino)-4-methylthiobutanamide] |
| 0.032 | 0.16 | CCSCCC(NS(=O)(=O)c1ccc(Cl)cc1)C(=O)Nc1ccc(CC(=O)O)cc1 (racemic) [Example 242, (RS)-N-(4-(carboxymethyl)phenyl)-2-(4-chlorobenzenesulfonylamino)-4-ethylthiobutanamide] |
| 0.024 | 0.53 | O=C(O)Cc1ccc(NC(=O)C(COc2ccccc2)NS(=O)(=O)c2ccc(Br)cc2)cc1 (racemic) [Example 142, (RS)-2-(4-bromobenzenesulfonylamino)-N-(4-(carboxymethyl)phenyl)-3-phenoxypropanamide] |
| 0.019 | 1.7 | O=C(O)Cc1ccc(NC(=O)C(COc2cccc(Cl)c2)NS(=O)(=O)c2ccc(I)cc2)cc1 (racemic) [Example 151, (RS)-N-(4-(carboxymethyl)phenyl)-3-(3-chlorophenoxy)-2-(4-iodobenzenesulfonylamino) propanamide] |
| 0.023 | 1.7 | O=C(O)Cc1ccc(NC(=O)C(COc2ccccc2Cl)NS(=O)(=O)c2ccc(Cl)cc2)cc1 (racemic) [Example 132, (RS)-N-(4-(carboxymethyl)phenyl)-2-(4-chlorobenzenesulfonylamino)-3-(2-chlorophenoxy)propanamide] |
| 0.69 | 1.7 | O=C(O)Cc1ccc(NC(=O)C(CCOC2CCCCO2)NS(=O)(=O)c2ccc(Cl)cc2)cc1 (racemic) [Example 169, (RS)-N-(4-(carboxymethyl)phenyl)-2-(4-chlorobenzenesulfonylamino)-4-(tetrahydropyran-2-yloxy)butanamide] |
| 0.13 | 0.17 | CCCC[C@H](NS(=O)(=O)c1ccc(Cl)cc1)C(=O)Nc1ccc(CC(=O)O)cc1 [Example 223, (S)-N-(4-(carboxymethyl)phenyl)-2-(4-chlorobenzenesulfonylamino)hexanamide] |
| 0.046 | 0.54 | O=C(O)Cc1ccc(NC(=O)C(Cc2ccccc2)NS(=O)(=O)c2ccc(Cl)cc2)cc1 (racemic) [Example 247, (RS)-N-(4-(carboxymethyl)phenyl)-2-(4-chlorobenzenesulfonylamino)-3-phenylpropanamide] |
| 0.15 | 0.3 | CSCC[C@H](NS(=O)(=O)c1ccc(Cl)cc1)C(=O)Nc1ccc(CCC(=O)O)cc1 [Example 237, (S)-N-(4-(2-carboxyethyl)phenyl)-2-(4-chlorobenzenesulfonylamino)-4-methylthiobutanamide] |
| 0.1 | 0.53 | O=C(O)Cc1ccc(NC(=O)C(COc2cccc(Cl)c2)NS(=O)(=O)c2ccc(F)cc2)cc1 (racemic) [Example 138, (RS)-N-(4-(carboxymethyl)phenyl)-3-(3-chlorophenoxy)-2-(4-fluorobenzenesulfonylamino)propanamide] |
| 0.72 | 0.54 | O=C(O)Cc1ccc(NC(=O)C(COc2ccccc2)NS(=O)(=O)c2ccc(Cl)cc2)cc1 (racemic) [Example 129, (RS)-N-(4-(carboxymethyl)phenyl)-2-(4-chlorobenzenesulfonylamino)-3-phenoxypropanamide] |
